The molecules below were run against T1, gamma-secretase (Homo sapiens, UniProt P49768) (assay: Gamma-secretase APP enzyme assay (MBP-C125 Swe cleavage at Aβ40 site, sandwich ELISA)). Conditions: IMR-32 cell membrane extract as enzyme; MBP-C125swe substrate; 2 h at 37° C; read-out: γAPP.
T1 construct: The assay used a partially purified extract of IMR-32 cell membranes as the gamma-secretase enzyme preparation; endogenous in cells; host or cells: IMR-32 cell membranes (partially purified extract)
Type: biochemical
Excerpt: The gamma-secretase APP enzyme assay was designed to measure the specific proteolytic cleavage of an APP substrate (MBP-C125 Swe fusion protein) at the Aβ40 site. The assay used a partially purified extract of IMR-32 cell membranes as the gamma-secretase enzyme preparation and a recombinant fusion protein containing the C-terminal 125 amino acids of the Swedish variant of the APP (MBP-C125swe) as the substrate. This assay involved two steps beginning with the enzymatic reaction generating a cleavage product that was captured with an immobilized antibody specific for the neo-epitope Aβ40 site. The captured cleavage product was then detected in a sandwich ELISA assay with a biotinylated reporter antibody that is specific to Aβ (17-28). Streptavidin-linked alkaline phosphatase was then added that would generate a fluorescent signal proportional to the amount of cleavage product. This assay was used to discover small molecule inhibitors of gamma-secretase.
Briefly, a 149 mg/ml solution of BIGCHAP detergent was made with water at 42° C. and then rotated for 30 minutes at the same temperature. This warmed solution of BigCHAPS(N,N-Bis(3-D-gluconamidopropyl)cholamide) detergent was used to dissolve Brain Extract Type-V (lipid containing a minimum of 40% phosphatidylethanolamine) from Sigma (St. Louis, Mo.) to a concentration of 8 mg/ml. This solution containing BigCHAPS and lipid at 8 mg/ml is then diluted to 0.53 mg/ml lipid with a pre-warmed solution of Hepes and sodium chloride. This final solution containing Hepes buffer, sodium chloride, BigCHAPS detergent and lipid is used to create working solutions of both gamma-secretase (25 Units) and the MBP-C125 substrate (0.05 mg/ml).
Gamma-secretase was then added to a 96-well micro-titre plate and then incubated with various concentrations of inhibitor for 30 minutes at 37° C. MBPC125 substrate was then added to initiate the reaction that would run for two hours at 37° C. The reaction was quenched with the addition of SDS to a final concentration of 0.1% and then 100 μl of the reaction mixture was transferred to a capture ELISA plate and incubated overnight at 4° C. Detection of the cleavage product was performed using a standard sandwich ELISA assay and quantified using a six point standard curve.

Molecule | IC50
CC[C@H]1Cc2n[nH]cc2[C@@H](c2ccc(Cl)cc2)N1S(=O)(=O)c1ccc(Cl)cc1 [(4R,6S)-4-(4-chlorophenyl)-5-(4-chlorophenylsulfonyl)-6-ethyl-4,5,6,7-tetrahydro-1H-pyrazolo[4,3-c]pyridine] | < 0.05 µM
CCC1c2cn[nH]c2CC(CO)N1S(=O)(=O)c1ccc(Cl)cc1 (stereo not shown) [5-(4-chlorophenylsulfonyl)-4-ethyl-4,5,6,7-tetrahydro-1H-pyrazolo[4,3-c]pyridin-6-yl)methanol] | < 0.05 µM
CC[C@@H]1c2cn[nH]c2/C(=N\O)[C@H](CC)N1S(=O)(=O)c1ccc(Cl)cc1 [(4R,6S,Z)-5-(4-chlorophenylsulfonyl)-4,6-diethyl-5,6-dihydro-1H-pyrazolo[4,3-c]pyridin-7(4H)-one oxime] | 0.05 to 0.15 µM
O=S(=O)(c1ccc(Cl)cc1)N1CCc2[nH]ncc2C1c1nc2ccccc2[nH]1 (stereo not shown) [4-(1H-Benzoimidazol-2-yl)-5-(4-chloro-benzenesulfonyl)-4,5,6,7-tetrahydro-1H-pyrazolo[4,3-c]pyridine] | 0.15 to 0.3 µM
O=S(=O)(c1ccc(Cl)cc1)N1Cc2cn[nH]c2CC1c1ccc(F)cc1 (stereo not shown) [5-(4-chlorophenylsulfonyl)-6-(4-fluorophenyl)-4,5,6,7-tetrahydro-1H-pyrazolo[4,3-c]pyridine] | < 0.05 µM
O=S(=O)(c1ccc(Cl)cc1)N1Cc2c[nH]nc2CC1c1cncnc1 (single isomer, unassigned) [5-(4-chlorophenylsulfonyl)-6-(pyrimidin-5-yl)-4,5,6,7-tetrahydro-1H-pyrazolo[4,3-c]pyridine] | < 0.05 µM
CC[C@@H]1Cc2[nH]ncc2[C@@H](COC(=O)N(C)C)N1S(=O)(=O)c1ccc(Cl)cc1 [((4S,6R)-5-(4-chlorophenylsulfonyl)-6-ethyl-4,5,6,7-tetrahydro-1H-pyrazolo[4,3-c]pyridin-4-yl)methyl dimethylcarbamate] | 0.15 to 0.3 µM
C[C@@H]1c2cn[nH]c2C[C@H](C)N1S(=O)(=O)c1ccc(Cl)cc1 [(4R,6S)-5-(4-chlorophenylsulfonyl)-4,6-dimethyl-4,5,6,7-tetrahydro-1H-pyrazolo[4,3-c]pyridine] | < 0.05 µM
O=S(=O)(c1ccc(Cl)cc1)N1Cc2c[nH]nc2CC1Cc1ccccc1 (stereo not shown) [6-benzyl-5-(4-chlorophenylsulfonyl)-4,5,6,7-tetrahydro-1H-pyrazolo[4,3-c]pyridine] | 0.05 to 0.15 µM
O=S(=O)(c1ccc(Cl)cc1)N1Cc2cn[nH]c2CC1CO (stereo not shown) [(5-(4-chlorophenylsulfonyl)-4,5,6,7-tetrahydro-1H-pyrazolo[4,3-c]pyridin-6-yl)methanol] | 0.15 to 0.3 µM
O=S(=O)(c1ccc(Cl)cc1)N1[C@@H](CO)Cc2[nH]ncc2[C@H]1CO [((4S,6R)-5-(4-chlorophenylsulfonyl)-4,5,6,7-tetrahydro-1H-pyrazolo[4,3-c]pyridine-4,6-diyl)dimethanol] | 0.15 to 0.3 µM
CN(C)C(=O)OC[C@@H]1c2cn[nH]c2CCN1S(=O)(=O)c1ccc(Cl)cc1 [(S)-(5-(4-chlorophenylsulfonyl)-4,5,6,7-tetrahydro-1H-pyrazolo[4,3-c]pyridin-4-yl)methyl dimethylcarbamate] | 0.15 to 0.3 µM
O=S(=O)(c1ccc(Cl)cc1)N1CCc2ncccc2C1c1ccc(Cl)cc1 (stereo not shown) [5-(4-chlorophenyl)-6-(4-chlorophenylsulfonyl)-5,6,7,8-tetrahydro-1,6-naphthyridine] | < 0.05 µM
CN(C)C(=O)OC[C@@H]1c2cnn(C(=O)N(C)C)c2CCN1S(=O)(=O)c1ccc(Cl)cc1 [(S)-(5-(4-chlorophenylsulfonyl)-1-(dimethylcarbamoyl)-4,5,6,7-tetrahydro-1H-pyrazolo[4,3-c]pyridin-4-yl)methyl dimethylcarbamate] | 0.15 to 0.3 µM
CC[C@@H]1c2cn[nH]c2C[C@@H](COC(=O)N(C)C)N1S(=O)(=O)c1ccc(Cl)cc1 [((4R,6S)-5-(4-chlorophenylsulfonyl)-4-ethyl-4,5,6,7-tetrahydro-1H-pyrazolo[4,3-c]pyridin-6-yl)methyl dimethylcarbamate] | 0.15 to 0.3 µM
O=S(=O)(c1ccc(Cl)cc1)N1Cc2cn[nH]c2CC1c1ccncc1 (stereo not shown) [5-(4-chlorophenylsulfonyl)-6-(pyridin-4-yl)-4,5,6,7-tetrahydro-1H-pyrazolo[4,3-c]pyridine] | 0.15 to 0.3 µM
O=S(=O)(c1ccc(Cl)cc1)N1Cc2cn[nH]c2CC1c1cccnc1 (stereo not shown) [5-(4-chlorophenylsulfonyl)-6-(pyridin-3-yl)-4,5,6,7-tetrahydro-1H-pyrazolo[4,3-c]pyridine] | 0.05 to 0.15 µM

Molecule | IC50
CC[C@@H]1C(=O)c2[nH]ncc2[C@H](CC)N1S(=O)(=O)c1ccc(Cl)cc1 [(4S,6R)-5-(4-chlorophenylsulfonyl)-4,6-diethyl-5,6-dihydro-1H-pyrazolo[4,3-c]pyridin-7(4H)-one] | 0.15 to 0.3 µM
(4S,6R)-diethyl 5-(4-chlorophenylsulfonyl)-4,5,6,7-tetrahydro-1H-pyrazolo[4,3-c]pyridine-4,6-dicarboxylate | 0.05 to 0.15 µM
CC[C@H]1Cc2[nH]ncc2[C@@H](CC)N1S(=O)(=O)c1ccccn1 [(4R,6S)-4,6-diethyl-5-(pyridin-2-ylsulfonyl)-4,5,6,7-tetrahydro-1H-pyrazolo[4,3-c]pyridine] | 0.05 to 0.15 µM
O=S(=O)(c1ccc(Cl)s1)N1Cc2cn[nH]c2CC1c1ccccc1 (stereo not shown) [5-(5-chlorothiophen-2-ylsulfonyl)-6-phenyl-4,5,6,7-tetrahydro-1H-pyrazolo[4,3-c]pyridine] | < 0.05 µM
CC[C@H]1c2cn[nH]c2C[C@@H](COC(=O)N(C)C)N1S(=O)(=O)c1ccc(Cl)cc1 [((4S,6S)-5-(4-chlorophenylsulfonyl)-4-ethyl-4,5,6,7-tetrahydro-1H-pyrazolo[4,3-c]pyridin-6-yl)methyl dimethylcarbamate] | < 0.05 µM
CC[C@@H]1Cc2[nH]ncc2[C@H](CC)N1S(=O)(=O)c1ccc(Cl)cc1 [(4S,6R)-5-(4-chlorophenylsulfonyl)-4,6-diethyl-4,5,6,7-tetrahydro-1H-pyrazolo[4,3-c]pyridine] | 0.05 to 0.15 µM
CC(C)C1Cc2n[nH]cc2CN1S(=O)(=O)c1ccc(Cl)cc1 (stereo not shown) [5-(4-chlorophenylsulfonyl)-6-isopropyl-4,5,6,7-tetrahydro-1H-pyrazolo[4,3-c]pyridine] | < 0.05 µM
CC[C@H]1Cc2n[nH]cc2[C@@H](CC)N1S(=O)(=O)c1ccc(F)cc1 [(4R,6S)-4,6-diethyl-5-(4-fluorophenylsulfonyl)-4,5,6,7-tetrahydro-2H-pyrazolo[4,3-c]pyridine] | < 0.05 µM
CC[C@@H]1c2c[nH]nc2C[C@H](c2ccc(Cl)cc2)N1S(=O)(=O)c1ccc(Cl)cc1 [(4R,6R)-6-(4-chlorophenyl)-5-(4-chlorophenylsulfonyl)-4-ethyl-4,5,6,7-tetrahydro-1H-pyrazolo[4,3-c]pyridine] | < 0.05 µM
CC[C@@H]1c2cn[nH]c2C(=O)[C@H](CC)N1S(=O)(=O)c1ccc(Cl)cc1 [(4R,6S)-5-(4-chlorophenylsulfonyl)-4,6-diethyl-5,6-dihydro-1H-pyrazolo[4,3-c]pyridin-7(4H)-one] | < 0.05 µM
C[C@H]1Cc2[nH]ncc2[C@H](C)N1S(=O)(=O)c1ccc(Cl)cc1 [(4S,6S)-5-(4-chlorophenylsulfonyl)-4,6-dimethyl-4,5,6,7-tetrahydro-1H-pyrazolo[4,3-c]pyridine] | < 0.05 µM
O=S(=O)(c1ccc(Cl)cc1)N1Cc2cn[nH]c2CC1c1cccc(F)c1 (stereo not shown) [5-(4-chlorophenylsulfonyl)-6-(3-fluorophenyl)-4,5,6,7-tetrahydro-1H-pyrazolo[4,3-c]pyridine] | < 0.05 µM
O=S(=O)(c1ccc(Cl)cc1)N1Cc2c(C(F)(F)F)n[nH]c2CC1c1ccc(Cl)cc1 (stereo not shown) [6-(4-chlorophenyl)-5-(4-chlorophenylsulfonyl)-3-(trifluoromethyl)-4,5,6,7-tetrahydro-1H-pyrazolo[4,3-c]pyridine] | 0.15 to 0.3 µM
CC[C@H]1Cc2[nH]ncc2[C@@H](COC(=O)N(C)C)N1S(=O)(=O)c1ccc(Cl)cc1 [((4S,6S)-5-(4-chlorophenylsulfonyl)-6-ethyl-4,5,6,7-tetrahydro-1H-pyrazolo[4,3-c]pyridin-4-yl)methyl dimethylcarbamate] | 0.15 to 0.3 µM
CCOC(=O)C1c2cn[nH]c2CC(CC)N1S(=O)(=O)c1ccc(Cl)cc1 (stereo not shown) [ethyl 5-(4-chlorophenylsulfonyl)-6-ethyl-4,5,6,7-tetrahydro-1H-pyrazolo[4,3-c]pyridine-4-carboxylate] | < 0.05 µM
O=S(=O)(c1ccc(Cl)cc1)N1CCc2n[nH]cc2C1c1nccs1 (stereo not shown) [2-(5-(4-chlorophenylsulfonyl)-4,5,6,7-tetrahydro-2H-pyrazolo[4,3-c]pyridin-4-yl)thiazole] | < 0.05 µM
CC[C@H]1Cc2n[nH]cc2[C@@H](CC)N1S(=O)(=O)c1ccc(Cl)cc1 [(4R,6S)-5-(4-chlorophenylsulfonyl)-4,6-diethyl-4,5,6,7-tetrahydro-1H-pyrazolo[4,3-c]pyridine] | < 0.05 µM

Source: patent US7732609B2, “5-(arylsulfonyl)-pyrazolopiperidines” (Elan Pharmaceuticals, Inc., priority 2005, dated 2010)
